| melting point | Structure (SMILES) |
| --- | --- |
| 47 to 48 °C | CC12CCC(/C(=C\c3ccc(OCCC[Si](C)(O[Si](C)(C)C)O[Si](C)(C)C)cc3)C1=O)C2(C)C (stereo not drawn) |
| 100 to 101 °C | CC12CCC(/C(=C\c3ccc(OCCC[Si](C)(C)C)cc3)C1=O)C2(C)C (stereo not drawn) |
| 79 to 80 °C | COc1cc(/C=C2/C(=O)C3(C)CCC2C3(C)C)ccc1OCCC[Si](C)(C)C (stereo not drawn) |

Reference: US6429326B1, “Benzylidenecamphor-substituted silanes/organosiloxanes for use in photostabilizing sunscreen compositions comprising dibenzoylmethane compounds” (Societe L'Oreal, priority 1998, dated 2002)
